Reference: ChEMBL document CHEMBL1201862, “PubChem BioAssay data set” (2004)
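96-well plates; 48 h exposure; 5 concentrations. Endpoints by linear interpolation between flanking doses. Not reached: highest tested concentration assigned. GI50: concentration for 50% inhibition of growth.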 The source made the active and inactive calls. Rule as the data show it: active = GI50 up to about 1.1 µM and inactive = higher. Starred links: 1 amine or outer side, 2 acyl side, 3 side chain; linkers in the order of their positions; H or OH if unused. Positions of bridges follow the written chain, without caps; N, C: chain ends. Non-standard residues stand in square brackets, D forms with d. Residues, ends and D or L forms follow the SMILES beside them. Chains are numbered I, II in the order given. Actinocin(9to1) = Cc1c2oc3c(C)ccc(C(=O)[*:1])c3nc-2c(C(=O)[*:2])c(N)c1=O; NMeV = CN[CH](C(=O)O)C(C)C; Sar = CNCC(=O)O

Legend:
Assay in all cases: DTP human tumour cell line panel, 48 h
[1] = test system: A549
[2] = test system: CCRF-CEM
[3] = test system: COLO 205
[4] = test system: Hs-578T
[5] = test system: KM12
[6] = test system: MCF7
[7] = test system: MDA-N
[8] = test system: NCI-H226
[9] = test system: NCI-H23
[10] = test system: NCI-H460
[11] = test system: OVCAR-4
[12] = test system: SF-295
[13] = test system: SNB-75
[14] = test system: TK-10
[15] = test system: RPMI-8226
[16] = test system: SK-OV-3

## Cc1ccc(S(=O)(=O)N2CCCN(S(=O)(=O)c3ccc(C)cc3)CC2)cc1
[1]
  GI50: > 10 µM (inactive)
[2]
  GI50: > 100 µM (inactive)
[3]
  GI50: > 100 µM (inactive)
[4]
  GI50: > 100 µM (inactive)
[5]
  GI50: > 100 µM (inactive)
[6]
  GI50: > 100 µM (inactive)
[7]
  GI50: > 100 µM (inactive)
[8]
  GI50: > 100 µM (inactive)
[9]
  GI50: > 100 µM (inactive)
[10]
  GI50: > 100 µM (inactive)
[11]
  GI50: > 100 µM (inactive)
[12]
  GI50: > 100 µM (inactive)
[13]
  GI50: > 100 µM (inactive)
[14]
  GI50: > 100 µM (inactive)

## O=C1CCC(NC(=O)c2ccccc2)C(=O)N1 (stereo not given)
[1]
  GI50: > 100 µM (inactive)
[3]
  GI50: > 100 µM (inactive)
[4]
  GI50: > 100 µM (inactive)
[5]
  GI50: > 100 µM (inactive)
[6]
  GI50: > 100 µM (inactive)
[7]
  GI50: > 100 µM (inactive)
[8]
  GI50: > 100 µM (inactive)
[9]
  GI50: > 100 µM (inactive)
[10]
  GI50: > 100 µM (inactive)
[11]
  GI50: > 100 µM (inactive)
[15]
  GI50: > 100 µM (inactive)
[12]
  GI50: > 100 µM (inactive)
[16]
  GI50: > 100 µM (inactive)
[13]
  GI50: > 100 µM (inactive)
[14]
  GI50: > 100 µM (inactive)

## C/C(=N\NC(=S)N(C)CCN(C)C(=S)N/N=C(\C)c1ccccn1)c1ccccn1
[1]
  GI50: 2.37 µM (inactive)
[2]
  GI50: 0.428 µM (active)
[3]
  GI50: 0.247 µM (active)
[4]
  GI50: 25.9 µM (inactive)
[5]
  GI50: 0.435 µM (active)
[6]
  GI50: 2.77 µM (inactive)
[7]
  GI50: 3.71 µM (inactive)
[8]
  GI50: 0.316 µM (active)
[9]
  GI50: 4.38 µM (inactive)
[10]
  GI50: 0.509 µM (active)
[11]
  GI50: 0.298 µM (active)
[15]
  GI50: 1.37 µM (inactive)
[12]
  GI50: 0.805 µM (active)
[16]
  GI50: 4.21 µM (inactive)
[13]
  GI50: 0.56 µM (active)
[14]
  GI50: 0.47 µM (active)

## CN1C(C)(C)CC(=O)C(Br)C1(C)C (stereo not given)
[1]
  GI50: > 100 µM (inactive)
[2]
  GI50: > 100 µM (inactive)
[3]
  GI50: > 100 µM (inactive)
[4]
  GI50: > 100 µM (inactive)
[5]
  GI50: > 100 µM (inactive)
[6]
  GI50: > 100 µM (inactive)
[7]
  GI50: > 100 µM (inactive)
[8]
  GI50: > 100 µM (inactive)
[9]
  GI50: > 100 µM (inactive)
[10]
  GI50: > 100 µM (inactive)
[11]
  GI50: > 100 µM (inactive)
[15]
  GI50: > 100 µM (inactive)
[12]
  GI50: > 100 µM (inactive)
[16]
  GI50: > 100 µM (inactive)
[13]
  GI50: 61.8 µM (inactive)
[14]
  GI50: > 100 µM (inactive)

## CCN(CC)C(=O)CCN1CC1
[1]
  GI50: > 10 µM (inactive)
[2]
  GI50: > 10 µM (inactive)
[3]
  GI50: > 10 µM (inactive)
[4]
  GI50: > 10 µM (inactive)
[5]
  GI50: > 10 µM (inactive)
[6]
  GI50: > 10 µM (inactive)
[7]
  GI50: > 10 µM (inactive)
[8]
  GI50: > 10 µM (inactive)
[9]
  GI50: > 10 µM (inactive)
[10]
  GI50: > 10 µM (inactive)
[11]
  GI50: > 10 µM (inactive)
[15]
  GI50: > 10 µM (inactive)
[12]
  GI50: > 10 µM (inactive)
[16]
  GI50: > 10 µM (inactive)
[13]
  GI50: > 10 µM (inactive)
[14]
  GI50: > 10 µM (inactive)

## COc1ccc2nc3c([N+](=O)[O-])ccc4c3c(c2c1)N=CN4CCCN(C)C
[1]
  GI50: 0.716 µM (active)
[2]
  GI50: 0.807 µM (active)
[3]
  GI50: 0.855 µM (active)
[4]
  GI50: 7.28 µM (inactive)
[5]
  GI50: 1.24 µM (inactive)
[6]
  GI50: 0.733 µM (active)
[7]
  GI50: 4.62 µM (inactive)
[8]
  GI50: 7.18 µM (inactive)
[9]
  GI50: 4.27 µM (inactive)
[10]
  GI50: 0.773 µM (active)
[11]
  GI50: 1.65 µM (inactive)
[15]
  GI50: 0.318 µM (active)
[12]
  GI50: 2.55 µM (inactive)
[16]
  GI50: 4.4 µM (inactive)
[13]
  GI50: 2.67 µM (inactive)
[14]
  GI50: 1.45 µM (inactive)

## O=c1[nH]c(=S)[nH]n1C(=S)n1[nH]c(=S)[nH]c1=O
[1]
  GI50: > 100 µM (inactive)
[2]
  GI50: 71.8 µM (inactive)
[3]
  GI50: > 100 µM (inactive)
[4]
  GI50: > 100 µM (inactive)
[5]
  GI50: > 100 µM (inactive)
[6]
  GI50: 2.94 µM (inactive)
[7]
  GI50: > 100 µM (inactive)
[8]
  GI50: > 100 µM (inactive)
[9]
  GI50: > 100 µM (inactive)
[10]
  GI50: > 100 µM (inactive)
[11]
  GI50: > 100 µM (inactive)
[15]
  GI50: 89.1 µM (inactive)
[12]
  GI50: > 100 µM (inactive)
[13]
  GI50: > 100 µM (inactive)
[14]
  GI50: > 100 µM (inactive)

## Cc1nc2[nH]ncn2c(=O)c1CCCl
[1]
  GI50: > 10 µM (inactive)
[2]
  GI50: > 10 µM (inactive)
[3]
  GI50: > 10 µM (inactive)
[4]
  GI50: > 10 µM (inactive)
[6]
  GI50: > 10 µM (inactive)
[7]
  GI50: > 10 µM (inactive)
[8]
  GI50: > 10 µM (inactive)
[9]
  GI50: > 10 µM (inactive)
[10]
  GI50: > 10 µM (inactive)
[11]
  GI50: > 10 µM (inactive)
[15]
  GI50: > 10 µM (inactive)
[16]
  GI50: > 10 µM (inactive)
[13]
  GI50: > 10 µM (inactive)
[14]
  GI50: > 10 µM (inactive)

## COc1cc([N+](=O)[O-])ccc1NC1=CC(=O)CCC1
[1]
  GI50: > 100 µM (inactive)
[2]
  GI50: > 100 µM (inactive)
[3]
  GI50: > 100 µM (inactive)
[4]
  GI50: > 100 µM (inactive)
[5]
  GI50: > 100 µM (inactive)
[6]
  GI50: > 100 µM (inactive)
[7]
  GI50: > 100 µM (inactive)
[8]
  GI50: > 100 µM (inactive)
[9]
  GI50: > 100 µM (inactive)
[10]
  GI50: > 100 µM (inactive)
[11]
  GI50: > 100 µM (inactive)
[15]
  GI50: > 100 µM (inactive)
[12]
  GI50: > 100 µM (inactive)
[16]
  GI50: > 100 µM (inactive)
[13]
  GI50: 27.6 µM (inactive)
[14]
  GI50: > 100 µM (inactive)

## COc1cc2c(cc1OC)C1C(O)C(OC)C(Br)C3(Br)CCN(C2)C13 (stereo not given)
[1]
  GI50: > 100 µM (inactive)
[2]
  GI50: > 100 µM (inactive)
[3]
  GI50: > 100 µM (inactive)
[4]
  GI50: > 100 µM (inactive)
[5]
  GI50: 94.8 µM (inactive)
[6]
  GI50: > 100 µM (inactive)
[7]
  GI50: > 100 µM (inactive)
[8]
  GI50: > 100 µM (inactive)
[9]
  GI50: > 100 µM (inactive)
[10]
  GI50: 56.6 µM (inactive)
[11]
  GI50: > 100 µM (inactive)
[15]
  GI50: > 100 µM (inactive)
[12]
  GI50: > 100 µM (inactive)
[16]
  GI50: > 100 µM (inactive)
[13]
  GI50: 78.9 µM (inactive)
[14]
  GI50: > 100 µM (inactive)

## C=C1C(=O)O[C@@]23C1CC[C@@H](C)C2CC[C@@]1(C)OC31 (stereo not given in full)
[1]
  GI50: 21.2 µM (inactive)
[2]
  GI50: 3.42 µM (inactive)
[3]
  GI50: 1.86 µM (inactive)
[4]
  GI50: 16 µM (inactive)
[5]
  GI50: 12.8 µM (inactive)
[6]
  GI50: 5.96 µM (inactive)
[7]
  GI50: 5.09 µM (inactive)
[8]
  GI50: 23.9 µM (inactive)
[9]
  GI50: 7.18 µM (inactive)
[10]
  GI50: 16.4 µM (inactive)
[11]
  GI50: 8.91 µM (inactive)
[15]
  GI50: 2.9 µM (inactive)
[12]
  GI50: 18.2 µM (inactive)
[16]
  GI50: 16 µM (inactive)
[13]
  GI50: 3.13 µM (inactive)
[14]
  GI50: 4.12 µM (inactive)

## Cc1c2oc3c(C)ccc(C(=O)NC4C(=O)NC(Cc5ccc(O)cc5)C(=O)N5CCCC5C(=O)N(C)CC(=O)N(C)C(C(C)C)C(=O)OC4C)c3nc-2c(C(=O)NC2C(=O)NC(Cc3ccc(O)cc3)C(=O)N3CCCC3C(=O)N(C)CC(=O)N(C)C(C(C)C)C(=O)OC2C)c(N)c1=O (stereo not given) (I: TYP[Sar][NMeV] / II: TYP[Sar][NMeV]; ester I:1-I:C, II:1-II:C; linker I:N-II:N via Actinocin(9to1); configuration not given here)
[1]
  GI50: 0.635 µM (active)
[3]
  GI50: 0.403 µM (active)
[4]
  GI50: 16.6 µM (inactive)
[5]
  GI50: 0.577 µM (active)
[6]
  GI50: 0.0805 µM (active)
[7]
  GI50: 0.535 µM (active)
[8]
  GI50: 0.957 µM (active)
[9]
  GI50: 0.494 µM (active)
[10]
  GI50: 0.215 µM (active)
[11]
  GI50: 1.14 µM (inactive)
[15]
  GI50: 0.282 µM (active)
[12]
  GI50: 0.42 µM (active)
[16]
  GI50: 10.5 µM (inactive)
[13]
  GI50: 0.139 µM (active)
[14]
  GI50: 13.7 µM (inactive)
